What was measured:
[1] = tested on: sub-genomic HCV NS3-NS5B replicon of genotype 1a in Huh-7 cells; test: Replicon Luciferase Cell Based Assay, genotype 1a; set-up: species or system HCV genotype 1a; settings: Hepatitis C virus, Huh-7, 48 hours
Procedure: (§1) A 10 mM stock solution in DMSO of each test compound was further diluted in DMSO in the first row of a 384-well, V-bottom microplate, to give 100 times the top concentration of the required dilution series. Dilutions of compound were prepared in 1:3 serial dilutions from the first row onwards robotically. A robot was also used to transfer 0.5 μL volumes from each dilution well into wells of white 384-well assay plates (Nunc #164610). Control wells received 0.5 μL of DMSO alone. Plates were made in duplicate for measuring HCV replication and cytotoxicity in the replicon cell lines.
(§2) Suspensions were prepared from cultures of Huh-7 cells stably transfected with sub-genomic HCV NS3—NS5B replicons of either genotype 1b (the ET subline described by Pietschmann, T., Lohmann, V., Kaul, A., Krieger, N., Rinck, G., Rutter, G., Strand, D. & Bartenschlager, R., Journal of Virology, 2002, 76, 4008-4021) or genotype 1a linked to a firefly luciferase reporter gene. Monolayers nearing confluency were stripped from growth flasks with versene-trypsin solution and the cells re-suspended in assay medium comprising DMEM (Invitrogen #11965-092) supplemented with 5% v/v foetal calf serum, 1% v/v non-essential amino acids solution, 100 units/ml penicillin, 100 μg/ml streptomycin and 2 mM GlutaMAX-1. 50 μL of suspension containing 5,000 cells of either genotype 1b or genotype 1a luciferase replicon were added to all wells, except medium controls, of the assay plate with a Multidrop Combi (Thermo Scientific Corporation) and the plate incubated for 48 hours at 37° C. in a 5% CO2 atmosphere. A solution of Steady-Glo cytolytic buffer/luciferase substrate (Promega #E2550) was prepared according to the manufacturer's instructions, and 20 μL were added to each well with a Multidrop Combi. To measure cytotoxicity, a solution of CellTiter-Glo Luminescent Cell Viability Assay reagent (Promega #G7573) was prepared according to the manufacturer's instructions, and 20 ul were added to each well with a Multidrop Combi. The plates were then read for luminescence on an Envision Multilabel Reader (Perkin Elmer)
(§3) Potency: The luminescence values from all compound-free wells containing cells were averaged to obtain a positive control value. The mean luminescence value from the compound-free wells that had received no cells was used to provide the negative (background) control value. After the subtraction of the mean background from all values, the readings from wells at each compound concentration were expressed as a percentage of the positive control signal. The quantifiable and specific reduction of luciferase signal in the presence of a drug is a direct measure of replicon inhibition. The BioAssay application and XC50 module were used to plot the curve of percentage inhibition against compound concentration and derive the 50% inhibitory concentration (IC50) for the compound.

[2] = tested on: sub-genomic HCV NS3-NS5B replicon of genotype 1b (ET subline) in Huh-7 cells; test: Replicon Luciferase Cell Based Assay, genotype 1b; set-up: species or system HCV genotype 1b; settings: Hepatitis C virus, Huh-7, 48 h, read-out: Genotype 1b (IC50 μM)
Procedure: as §1, §2, §3

SMILES	IC50 [1]	IC50 [2]
COc1ccc2c(O[C@@H]3C[C@H]4C(=O)N[C@]5(C(=O)NS(=O)(=O)C6CC6)C[C@H]5/C=C\CCCCC[C@H](NC(=O)N5CCN(C6CCCC6)CC5)C(=O)N4C3)cc(-c3nc(C(C)C)cs3)nc2c1C [Example 13, (2R,6S,13aS,14aR,16aS)-6-{[(4-cyclopentyl-1-piperazinyl)carbonyl]amino}-N-(cyclopropylsulfonyl)-2-{[8-methyl-2-[4-(1-methylethyl)-1,3-thiazol-2-yl]-7-(methyloxy)-4-quinolinyl]oxy}-5,16-dioxo-1,2,3,6,7,8,9,10,11,13a,14,15,16,16a-tetradecahydrocyclopropa[e]pyrrolo[1,2-a][1,4]diazacyclopentadecine-14a(5H)-carboxamide]	< 0.01 µM	< 0.01 µM
COc1ccc2c(O[C@@H]3C[C@H]4C(=O)N[C@]5(C(=O)NS(=O)(=O)C6CC6)C[C@H]5/C=C\CCCCC[C@H](NC(=O)N5CCOCC5)C(=O)N4C3)cc(-c3nc(C(C)C)cs3)nc2c1C [Example 14]	< 0.01 µM	< 0.01 µM
COc1ccc2c(O[C@@H]3C[C@H]4C(=O)N[C@]5(C(=O)NS(=O)(=O)C6CC6)C[C@H]5/C=C\CCCCC[C@H](NC(=O)N5CCCC5)C(=O)N4C3)cc(-c3nc(C(C)C)cs3)nc2c1C [Example 15, (2R,6S,13aS,14aR,16aS)-N-(cyclopropylsulfonyl)-2-{[8-methyl-2-[4-(1-methylethyl)-1,3-thiazol-2-yl]-7-(methyloxy)-4-quinolinyl]oxy}-5,16-dioxo-6-[(1-pyrrolidinylcarbonyl)amino]-1,2,3,6,7,8,9,10,11,13a,14,15,16,16a-tetradecahydrocyclopropa[e]pyrrolo[1,2-a][1,4]diazacyclopentadecine-14a(5H)-carboxamide]	< 0.01 µM	< 0.01 µM
CCN(C)C(=O)N[C@H]1CCCCC/C=C\[C@@H]2C[C@@]2(C(=O)NS(=O)(=O)C2CC2)NC(=O)[C@@H]2C[C@@H](Oc3cc(-c4nc(C(C)C)cs4)nc4c(C)c(OC)ccc34)CN2C1=O [Example 17]	< 0.01 µM	< 0.01 µM
COc1ccc2c(O[C@@H]3C[C@H]4C(=O)N[C@]5(C(=O)NS(=O)(=O)C6CC6)C[C@H]5/C=C\CCCCC[C@H](NC(=O)N5CCC5)C(=O)N4C3)cc(-c3nc(C(C)C)cs3)nc2c1C [Example 18, (2R,6S,13aS,14aR,16aS)-6-[(1-azetidinylcarbonyl)amino]-N-(cyclopropylsulfonyl)-2-{[8-methyl-2-[4-(1-methylethyl)-1,3-thiazol-2-yl]-7-(methyloxy)-4-quinolinyl]oxy}-5,16-dioxo-1,2,3,6,7,8,9,10,11,13a,14,15,16,16a-tetradecahydrocyclopropa[e]pyrrolo[1,2-a][1,4]diazacyclopentadecine-14a(5H)-carboxamide]	< 0.01 µM	< 0.01 µM
CCCN(CC1CC1)C(=O)N[C@H]1CCCCC/C=C\[C@@H]2C[C@@]2(C(=O)NS(=O)(=O)C2CC2)NC(=O)[C@@H]2C[C@@H](Oc3cc(-c4nc(C(C)C)cs4)nc4c(C)c(OC)ccc34)CN2C1=O [Example 19, (2R,6S,13aS,14aR,16aS)-6-({[(cyclopropylmethyl)(propyl)amino]carbonyl}amino)-N-(cyclopropylsulfonyl)-2-{[8-methyl-2-[4-(1-methylethyl)-1,3-thiazol-2-yl]-7-(methyloxy)-4-quinolinyl]oxy}-5,16-dioxo-1,2,3,6,7,8,9,10,11,13a,14,15,16,16a-tetradecahydrocyclopropa[e]pyrrolo[1,2-a][1,4]diazacyclopentadecine-14a(5H)-carboxamide]	< 0.01 µM	< 0.01 µM

From patent publication US20100196321A1, “COMPOUNDS” (GLAXOSMITHKLINE LLC, priority 2009, published 2010)
